Results taken from US20090227673A1, “Method and Composition for the Treatment of Parkinson's Disease” (priority 2006, published 2009).
Like-named read-outs stand apart in the source and are kept apart here.

Molecular target: T1, human COMT (Homo sapiens, UniProt P21964)
T1 construct: from tissue; host or cells: human liver cytosol (preparations HL4C, HL9C, HL8C)
T1 sequence (P21964 1-221 isoform P21964-2): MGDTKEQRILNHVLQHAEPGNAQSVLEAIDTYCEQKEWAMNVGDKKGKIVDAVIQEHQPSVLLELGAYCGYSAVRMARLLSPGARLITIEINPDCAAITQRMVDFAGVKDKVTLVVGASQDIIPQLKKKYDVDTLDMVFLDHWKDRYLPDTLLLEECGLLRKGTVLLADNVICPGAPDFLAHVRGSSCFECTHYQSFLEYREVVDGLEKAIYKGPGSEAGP
Assay: Inhibition of human liver COMT-mediated o-methylation of catecholamines (human liver cytosol, [3H-methyl]AdoMet)
Assay type: biochemical

[1] = 10 μM catecholamine substrate, 250 μM AdoMet, 0.25 mg/mL human liver cytosolic protein, 37° C., 10 min, pH 7.4

| SMILES | IC50 [1] [nM] | IC50 [nM] |
| --- | --- | --- |
| Oc1cc(O)c2c(c1)O[C@H](c1ccc(O)c(O)c1)[C@H](O)C2 [epicatechin] | 500 to 1000 | – |
| O=C(/C=C/c1ccc(O)c(O)c1)OCCc1ccccc1 [caffeic acid pheethyl ester, caffeic acid phenethyl ester] | – | 500 to 1000 |
| O=C(/C=C/c1ccc(O)c(O)c1)O[C@@H]1C[C@](O)(C(=O)O)C[C@@H](O)[C@H]1O [chlorogenic acid] | 500 to 1000 | – |
| O=c1c(O)c(-c2ccc(O)c(O)c2)oc2cc(O)cc(O)c12 [quercetin] | ~331 | – |
| O=C(O)/C=C/c1ccc(O)c(O)c1 [caffeic acid] | 500 to 1000 | – |
